Results on 20 compounds are retold here after patent US9796714B2, “Calcium channel agonists” (University of Pittsburgh—Of the Commonwealth System of …, priority 2013, dated 2017).

For data set [1], the target named is T1, N-type Ca^2+ channel (Cav2.2) (Rattus norvegicus, UniProt Q02294).
T1 construct: expressed in transfected cells; later also transient transfection
Put plainly: N-type Ca2+ channel agonist activity, whole-cell perforated patch clamp of tail currents in tsA201 cells. Format: cell-based. The settings on record: for EC50: whole cell perforated patch clamp, deactivation (tail) currents from N-type channels, read-out: N-Type Ca^2+ Channel Activity EC50 +/− SEM. How it is done: tsA201 cells expressing calcium channels. […] For subsequent evaluation of effects on N-, P/Q-, or L-type channels, tsA-201 cells were transiently transfected with Cav2.2, Cav2.1, or Cav1.3, in combination with Cavβ3 and […] (Addgene, Cambridge Mass.) using FuGENE 6 (Life Technologies, Grand Island, N.Y.). All cells were maintained in DMEM supplemented with 10% fetal bovine serum. For the stable cell line expressing N-type channels, 25 μg/mL zeocin, 5 μg/mL blasticidin, and 25 μg/mL hygromycin were added as selection agents.
Whole-cell patch clamp recordings of calcium current. […] Briefly, the pipette solution consisted of […] Cs2SO4, 60 mM CsCl, 1 mM MgCl2, 10 mM 4-(2-hydroxyethyl)-1-piperazineethanesulfonic acid (HEPES) at pH 7.4. […] Patch pipettes were fabricated from borosilicate glass and pulled to a resistance of about 1 MΩ. Before each experiment, a stock solution consisting of 3 mg amphotericin-B dissolved into 50 μL anhydrous DMSO was made. […] Capacitive currents and passive membrane responses to voltage commands were subtracted from the data. Currents were amplified by an Axopatch 200B amplifier, filtered at 5 KHz, and digitized at 10 KHz for subsequent analysis using pClamp software (Axon Instruments/Molecular Devices; Sunnyvale, Calif.). […] To measure effects on calcium channel tail currents, the tail current integral was measured before and after application of a derivative, with the integral of each trace being normalized to its peak. All experiments were carried out at room temperature (22° C.). […] All other salts and chemicals were obtained from Sigma-Aldrich chemical company (St. Louis, Mo.).
Statistical Analysis. Statistical analysis was performed using either GraphPad Prism 5 (GraphPad Software, Inc.) or Origin 7 (OriginLab) software. For the dose-response analyses on Ca^2+ current, each concentration of the four different compounds was tested in 3-6 cells. […] All EC50 and IC50 values and their respective errors were determined by performing 100 iterations of a logistic function curve fit. Data are presented as mean±s.e.m. unless otherwise noted.
For orientation: The patch-clamp technique gives a direct electrical read-out from membranes.

The conditions of data set [2]: cited from earlier work.
The test system of data set [3] is LEMS model NMJs. Kind of data set: Intracellular recordings at LEMS model mouse NMJs, 13x, DAP and combination (Example 4). The settings on record: 50 μM 13x, […] DAP, or both. As for the experimental part:
To test this, intracellular microelectrode recordings were performed on ex vivo nerve-muscle preparations taken from LEMS passive-transfer model mice and measured the magnitude of acetylcholine released at the neuromuscular junction. The most sensitive method of quantifying the magnitude of acetylcholine released is to determine the quantal content. Quantal content is defined as the number of neurotransmitter-containing synaptic vesicles that are released from the nerve terminal during a single action potential stimulus. This value was determined by first measuring the area under the average action potential-evoked endplate potential (EPP) and then dividing this value by the area under the average single vesicle release event (miniature endplate potential; mEPP). This value could be compared between experimental groups to provide an accurate measurement of changes in the magnitude of acetylcholine released during a single action potential. Using this approach, the quantal content among five experimental conditions was compared: control NMJs, LEMS NMJs, LEMS NMJs exposed to 50 μM 13x, LEMS NMJs exposed to 1.5 μM DAP, and LEMS NMJs exposed to 50 μM 13x+1.5 μM DAP (FIG. 10). […]; EPP amplitude=10.18±0.62 mV) as compared with control serum treated mouse NMJs (QC=107.5±3.6; EPP amplitude=34.62±1.37 mV; Tarr et al., 2013). […] In fact, this 13x-mediated enhancement was very similar to what was observed after exposure of LEMS model NMJs to 1.5 μM DAP (QC=49.0±4.4; EPP amplitude=17.94±1.381 mV). […]; EPP amplitude=34.62±1.37 mV; Tarr et al., 2013). […] In summary, while either 13x or DAP alone caused about an 80% increase in transmitter release from LEMS model NMJs, the combination of 13x plus DAP caused about a 300% increase in transmitter release.

For data set [4], the system named is LEMS passive transfer mouse NMJs. Put plainly: Intracellular recordings at LEMS passive transfer mouse NMJs, ex vivo ETA nerve-muscle preparation (Example 3). The settings on record: 50 μM, mean±SD, aBC2 LEMS passive transfer NMJs. How it is done: LEMS passive transfer. To test GV-58 in a LEMS model NMJ, an established LEMS passive transfer mouse model was utilized. To perform the passive transfer of LEMS, mice were injected with the serum of patients diagnosed with LEMS. […] Each serum sample was tested for the presence of voltage-gated Ca^2+ channel antibodies using a Ca^2+ channel antibody radioimmune assay (Kronus RIA kit, Star, Id.). Control serum was obtained from the University of Pittsburgh Medical Center blood bank. […]; 25-32 g; Charles River Laboratories) were divided into two groups: one group that received LEMS serum, and a control group that received control serum.
Intracellular recordings at mouse NMJs. […] A thin upper arm muscle, the epitrochleoanconeus (ETA), was chosen for these recordings. […] […]. A train of 10 EPPs was also collected in each muscle fiber using an inter-stimulus interval of 20 msec. To analyze the data, both the amplitudes and the areas under the waveforms (integral) were determined after correcting each digitized point in each trace for non-linear summation. Data were collected and analyzed using an Axoclamp 900A and the pClamp 10 suite of programs (Molecular Devices, Sunnyvale, Calif.).
Statistical Analysis. […] For the dose-response analyses on Ca^2+ current, each concentration of the four different compounds was tested in 3-6 cells. […]. All EC50 and IC50 values and their respective errors were determined by performing 100 iterations of a logistic function curve fit.

[5] abbreviates: oral administration to patients.

T1 sequence (Q02294 whole entry): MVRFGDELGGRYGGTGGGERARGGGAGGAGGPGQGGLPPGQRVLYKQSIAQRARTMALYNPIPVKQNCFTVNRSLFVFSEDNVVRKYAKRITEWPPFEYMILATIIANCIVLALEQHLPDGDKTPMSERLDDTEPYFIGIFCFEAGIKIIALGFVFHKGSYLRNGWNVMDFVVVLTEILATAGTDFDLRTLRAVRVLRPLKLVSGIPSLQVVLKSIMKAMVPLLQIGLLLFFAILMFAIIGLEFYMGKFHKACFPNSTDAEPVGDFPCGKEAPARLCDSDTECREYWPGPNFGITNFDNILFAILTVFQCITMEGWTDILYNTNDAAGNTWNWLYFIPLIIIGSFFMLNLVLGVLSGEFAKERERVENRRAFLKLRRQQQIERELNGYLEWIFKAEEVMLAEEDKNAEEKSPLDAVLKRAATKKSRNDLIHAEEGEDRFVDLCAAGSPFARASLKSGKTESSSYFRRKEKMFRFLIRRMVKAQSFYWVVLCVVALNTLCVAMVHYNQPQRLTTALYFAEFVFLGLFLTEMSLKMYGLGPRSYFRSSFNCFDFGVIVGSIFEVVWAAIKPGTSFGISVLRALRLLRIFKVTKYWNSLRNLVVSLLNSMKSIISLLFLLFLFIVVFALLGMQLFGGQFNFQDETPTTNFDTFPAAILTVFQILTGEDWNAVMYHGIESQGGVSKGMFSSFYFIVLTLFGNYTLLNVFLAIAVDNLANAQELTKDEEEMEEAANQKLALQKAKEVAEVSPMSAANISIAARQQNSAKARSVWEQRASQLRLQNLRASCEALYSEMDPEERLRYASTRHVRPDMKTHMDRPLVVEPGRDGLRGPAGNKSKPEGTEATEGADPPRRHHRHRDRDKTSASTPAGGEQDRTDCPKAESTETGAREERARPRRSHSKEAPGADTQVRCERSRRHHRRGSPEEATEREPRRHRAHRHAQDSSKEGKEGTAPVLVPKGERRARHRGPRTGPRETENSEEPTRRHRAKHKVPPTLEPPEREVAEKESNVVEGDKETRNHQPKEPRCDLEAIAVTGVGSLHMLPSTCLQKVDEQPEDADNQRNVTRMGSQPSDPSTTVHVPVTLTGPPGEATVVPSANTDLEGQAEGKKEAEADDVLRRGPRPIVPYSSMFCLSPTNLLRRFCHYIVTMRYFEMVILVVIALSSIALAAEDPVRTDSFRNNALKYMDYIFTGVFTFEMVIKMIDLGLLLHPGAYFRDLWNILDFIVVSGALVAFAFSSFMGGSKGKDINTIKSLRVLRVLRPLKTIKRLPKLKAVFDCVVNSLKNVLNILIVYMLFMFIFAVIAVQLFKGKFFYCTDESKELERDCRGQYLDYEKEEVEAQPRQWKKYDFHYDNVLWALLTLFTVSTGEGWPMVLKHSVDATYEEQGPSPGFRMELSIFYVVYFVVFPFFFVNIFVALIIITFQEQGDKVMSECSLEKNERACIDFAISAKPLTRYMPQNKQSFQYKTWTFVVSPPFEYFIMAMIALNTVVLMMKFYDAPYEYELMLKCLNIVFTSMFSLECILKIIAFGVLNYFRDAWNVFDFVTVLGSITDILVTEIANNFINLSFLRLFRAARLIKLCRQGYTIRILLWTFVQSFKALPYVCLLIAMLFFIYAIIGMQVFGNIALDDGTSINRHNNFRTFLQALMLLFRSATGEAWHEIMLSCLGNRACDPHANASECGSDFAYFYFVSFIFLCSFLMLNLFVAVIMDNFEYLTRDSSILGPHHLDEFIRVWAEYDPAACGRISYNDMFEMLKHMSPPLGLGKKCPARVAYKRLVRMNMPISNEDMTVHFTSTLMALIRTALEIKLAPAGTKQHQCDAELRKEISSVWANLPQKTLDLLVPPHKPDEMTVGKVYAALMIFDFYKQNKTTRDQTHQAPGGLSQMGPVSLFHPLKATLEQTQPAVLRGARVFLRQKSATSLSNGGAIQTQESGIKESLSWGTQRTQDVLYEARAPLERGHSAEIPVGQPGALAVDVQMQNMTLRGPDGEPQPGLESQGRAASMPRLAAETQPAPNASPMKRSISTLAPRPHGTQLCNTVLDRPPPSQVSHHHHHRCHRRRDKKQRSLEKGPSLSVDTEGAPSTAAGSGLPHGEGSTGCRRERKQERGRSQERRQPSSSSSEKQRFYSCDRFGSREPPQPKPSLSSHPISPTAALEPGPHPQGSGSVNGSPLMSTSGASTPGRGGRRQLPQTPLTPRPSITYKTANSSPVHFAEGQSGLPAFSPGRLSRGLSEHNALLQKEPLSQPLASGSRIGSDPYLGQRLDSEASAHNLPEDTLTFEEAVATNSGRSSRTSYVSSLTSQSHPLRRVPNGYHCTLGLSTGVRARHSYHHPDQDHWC

Consider `CCCn1cnc2c(NCc3ccc(-c4ccccc4)cc3)nc(N[C@H](CC)CO)nc21` [Compound 13a, (R)-2-(6-(Biphenyl-4-ylmethylamino)-9-propyl-9H-purin-2-ylamino)butan-1-ol], for which the EC50 in data set [1] was above 100 µM. On the same count and under the same terms, the value for `CCCn1cnc2c(NCCc3ccccc3)nc(N[C@H](CC)CO)nc21` [Compound 13c, (R)-2-(6-(Phenethylamino)-9-propyl-9H-purin-2-ylamino)butan-1-ol] was above 100 µM. Regarding `CCCn1cnc2c(NCc3ccccc3)nc(N[C@H](CC)CO)nc21` [Compound 13d, (R)-2-(6-(Benzylamino)-9-propyl-9H-purin-2-ylamino)butan-1-ol], the “increased Ca^2+ channel agonism vs. (R)-roscovitine” value in data set [1] (N-type) was “ca. 2 fold”. The EC50 in data set [1] was found to be 14.2 µM.

In the case of `CCCn1cnc2c(Nc3ccccc3)nc(N[C@H](CC)CO)nc21` [Compound 13e, (R)-2-(6-(Phenylamino)-9-propyl-9H-purin-2-ylamino)butan-1-ol], in data set [1], the EC50 was above 100 µM. For the compound `CCCn1cnc2c(NCc3cccnc3)nc(N[C@H](CC)CO)nc21` [Compound 13f, (R)-2-(9-Propyl-6-(pyridin-3-ylmethylamino)-9H-purin-2-ylamino)butan-1-ol], the EC50 in data set [1] was above 100 µM.

Regarding `CCCn1cnc2c(NCC3CC3)nc(N[C@H](CC)CO)nc21` [Compound 13g, (R)-2-(6-(Cyclopropylmethylamino)-9-propyl-9H-purin-2-ylamino)butan-1-ol], the “agonist effect on the Ca^2+ channel tail currents (in words)” value in data set [1] (N-type) is listed as “complete loss of N-type Ca^2+ channel activity”. In data set [1], the EC50 is above 100 µM. Regarding `CC[C@H](CO)Nc1nc(NCc2ccc(-c3ccccc3)cc2)c2ncn(C)c2n1` [Compound 13h, (R)-2-(6-(Biphenyl-4-ylmethylamino)-9-methyl-9H-purin-2-ylamino)butan-1-ol], the EC50 in data set [1] is above 100 µM.

Consider `CC[C@H](CO)Nc1nc(NCCc2ccccc2)c2ncn(C)c2n1` [Compound 13j, (R)-2-(9-Methyl-6-(phenethylamino)-9H-purin-2-ylamino)butan-1-ol], for which, in data set [1], the EC50 is above 100 µM. Same read-out and setting: the value for `CC[C@H](CO)Nc1nc(Nc2ccccc2)c2ncn(C)c2n1` [Compound 13l, (R)-2-(9-Methyl-6-(phenylamino)-9H-purin-2-ylamino)butan-1-ol] was above 100 µM. Still for that read-out and setting: under `CC[C@H](CO)Nc1nc(NCC2CC2)c2ncn(C)c2n1` [Compound 13m, (R)-2-(6-(Cyclopropylmethylamino)-9-methyl-9H-purin-2-ylamino)butan-1-ol] stands above 100 µM; under `CC[C@H](CO)Nc1nc(NCc2cccnc2)c2ncn(C)c2n1` [Compound 13n, (R)-2-(9-Methyl-6-(pyridin-3-ylmethylamino)-9H-purin-2-ylamino)butan-1-ol], above 100 µM; under `CCCn1cnc2c(NCc3ccc(C(F)(F)F)cc3)nc(N[C@H](CC)CO)nc21` [Compound 13o, (R)-2-(9-Propyl-6-(4-(trifluoromethyl)benzylamino)-9H-purin-2-ylamino)butan-1-ol], above 100 µM.

`CC[C@H](CO)Nc1nc(NCC2CC2)c2ncn(C(C)C)c2n1` [Compound 13p, (R)-2-(6-(Cyclopropylmethylamino)-9-isopropyl-9H-purin-2-ylamino)butan-1-ol]: the EC50 in data set [1] is above 100 µM. The same measure, in the same setting: under `CC[C@H](CO)Nc1nc(NCCc2ccccc2)c2ncn(C(C)C)c2n1` [Compound 13q, (R)-2-(9-Isopropyl-6-(phenethylamino)-9H-purin-2-ylamino)butan-1-ol] stands above 100 µM; under `CC[C@H](CO)Nc1nc(NCc2cccnc2)c2ncn(C(C)C)c2n1` [Compound 13r, (R)-2-(9-Isopropyl-6-(pyridin-3-ylmethylamino)-9H-purin-2-ylamino)butan-1-ol], above 100 µM; under `CC[C@H](CO)Nc1nc(NCc2ccc(-c3ccccc3)cc2)c2ncn(C(C)C)c2n1` [Compound 13s, (R)-2-(6-(Biphenyl-4-ylmethylamino)-9-isopropyl-9H-purin-2-ylamino)butan-1-ol], above 100 µM. As to `CC[C@H](CO)Nc1nc(NC(c2ccccc2)c2ccccc2)c2ncn(C(C)C)c2n1` [Compound 13t, (R)-2-(6-(Benzhydrylamino)-9-isopropyl-9H-purin-2-ylamino)butan-1-ol], in data set [1], the EC50 is above 100 µM. `CC[C@H](CO)Nc1nc(NCc2cccc(C(F)(F)F)c2)c2ncn(C(C)C)c2n1` [Compound 13v, (R)-2-(9-Isopropyl-6-(3-(trifluoromethyl)benzylamino)-9H-purin-2-ylamino)butan-1-ol]: the EC50 in data set [1] was above 100 µM.

For `Nc1ccncc1N` [DAP, 3,4-diaminopyridine, reference compound], in data set [2] (clinical trials, 10-20 mg 3 times per day), the serum levels entry is listed as “about 0.5 μM”. Besides, in data set [2] (setting [5]), the peak serum levels was 70 to 150 ng/mL and the “peak serum levels, corresponding concentration” value was 0.5 to 1.5 µM. In addition, in data set [3], the “10th EPP of 50 Hz train as % of the first EPP (short-term plasticity)” value is listed as around 132% and the “increase in transmitter release from LEMS model NMJs” value is reported as around 80%. Besides, the EPP amplitude in data set [3] (LEMS model NMJs) came out at 17.94±1.381 mV. The “quantal content (QC, area of EPP divided by area of mEPP)” value in data set [3] (LEMS model NMJs, mean±s.e.m.) turned out to be 49.0±4.4.

Take `Cn1cnc2c(NCc3ccccc3)nc(NCCO)nc21` [olomoucine, reference compound]: in data set [4], the “quantal content (EPP peak amplitude divided by mEPP peak amplitude)” value came to 33.4±11.3; the “quantal content determined from the area (integral) under EPP and mEPP waveforms” value is on record as 34.6±11.2. In data set [4] (listed as oloumucine), the “quantal content (EPP peak amplitude divided by mEPP peak amplitude)” value is listed as “slightly, but significantly smaller”; the “quantal content determined from the area (integral) under EPP and mEPP waveforms” value is “not significantly different”.
